Measured values reported in patent US20260355217A1, “HPK1 INHIBITOR, PREPARATION METHOD THEREFOR, AND USE THEREOF” (Beijing Earthwise Technology Co., Ltd., priority 2022, published 2026).

What was measured:
HPK1 = HPK1 (Homo sapiens, UniProt Q92918); test: HPK1 HTRF Kinase Assay; type: biochemical; conditions: 1000 μM ATP, 50 nM HPK1, STK1 substrate, 120 minutes
Description: Assay Example 2 HPK1 HTRF Kinase Assay
The assay was performed in a 384-well plate (Greier, Cat #784075) with a total reaction system of 20 μL. 1×kinase buffer (5*enzyme buffer, 5 mM MgCl2, 0.1% BSA, 1 mM DTT), […] and 1000 µM ATP, and 10 μL of Detection Mix (0.25 nM STK antibody, 62.5 nM XL665) were included in the reaction mixture. The reaction was initiated by adding 50 nM HPK1. After 120 minutes of reaction, the assay was terminated by adding 10 μL of Detection Mix. After being incubated at room temperature for 60 minutes, the assay plate was read by EnVision multi-function microplate reader to read the FRET signal (the ratio of HTRF 665/615 was calculated from the readings at 665 nm and 615 nm).
The ratio of the signal at 665 nm to the signal at 615 nm was converted to the percentage of inhibition. Inhibition %=(maximum value−sample value)/(maximum value−minimum value)×100. The minimum value refers to the value measured in a well without enzyme but with DMSO and substrate, and the maximum value refers to the value measured in a well with DMSO, enzyme and substrate. IC50 values were calculated by XLFit (version 5.3.1.3) in Excel. Equation: Y=Bottom+(Top−Bottom)/(1+(IC50/X)^HillSlope).

[1] = biological target: T1, pSLP76 (Phospho-SLP-76 (Ser376)), Jurkat E6-1 cells (Homo sapiens, UniProt Q92918); test: Phospho-SLP-76 (Ser376) HTRF Assay in Jurkat E6-1 cells; type: cell-based; conditions: compound 4 hours, then anti-CD3 20 minutes
T1 construct: read-out phospho-SLP-76 (Ser376) HTRF
Description: Assay Example 3 Phospho-SLP-76 (Ser376) HTRF Assay
A compound was dissolved in DMSO to 10 mM, and then diluted three-fold with DMSO to 10 dosages in a 96-well plate. Then, 3 μL of the diluted compound sample was transferred to a 96-well plate with 97 μL of cell culture medium, and the plate was shaken for 5 minutes. According to the experimental design diagram, 7.5 μL of the diluted compound sample was transferred to a cell plate. Final concentrations of the compound in this assay were 10000.00, 3333.33, 1111.11, 370.37, 123.46, 41.15, 13.72, 4.57, 1.52 and 0.51 nM.
In this assay, the density of Jurkat E6-1 cells was maintained between 3*10^5 to 3*10^6 cells/mL. The cell culture was replaced with fresh culture medium every 2 to 3 days (depending on the cell density). 30 μL of Jurkat E6-1 (300,000 cells) was added to a 96-well plate and incubated in a 37 °C incubator for 1 hour. Then, according to the experimental design diagram, compounds (6×, 7.5 μL) were added to treat the cells for 4 hours, respectively. After 4 hours, purified anti-human anti-CD3 antibodies (6×, 7.5 μL) were added to treat the cells for 20 minutes. After 20 minutes, 15 μL of cell lysis buffer (4×) was added, and the cells were lysed at 25 °C with shaking (250 rpm) for 1 hour. Then, according to the experimental design diagram, 16 μL of cell lysate was transferred to a 384-well plate using a pipette. After the transfer, 4 μL of antibody detection mixture was added. After being placed at room temperature overnight, the plate was read by EnVision multi-function microplate reader to read the FRET signal (the ratio of HTRF 665/615 was calculated from the readings at 665 nm and 615 nm).
The ratio of the signal at 665 nm to the signal at 615 nm was converted to the percentage of inhibition. Inhibition %=(maximum value−sample value)/(maximum value−minimum value)×100. The minimum value refers to the signal value of a well without anti-CD3 antibody stimulation during the treatment of cells, and the maximum value refers to the signal value of a well with anti-CD3 antibody stimulation but without the compound during the treatment of cells. IC50 values were calculated by XLFit (version 5.3.1.3) in excel. Equation: Y=Bottom+(Top−Bottom)/(1+(IC50/X)^HillSlope).

[2] = system: human Pan T cells (IL-2 release); test: Human Pan T Cell IL-2 ELISA; type: cell-based; conditions: Homo sapiens, T-cell, 48 h, Anti-CD3/Anti-CD28, IL-2 ELISA
Description: Assay Example 4 Human Pan T Cell IL-2 ELISA
A compound was dissolved in DMSO to 10 mM, and then diluted three-fold with DMSO to 9 dosages in a 96-well plate. Then, 10 μL of the diluted compound sample was transferred to a 96-well plate with 90 μL of cell culture medium, and the plate was shaken for 5 minutes. Then, 5 μL of the diluted compound sample was transferred to a 96-well plate with 120 μL of cell culture medium, and the plate was shaken for 5 minutes. According to the experimental design diagram, 50 μL of the diluted compound sample was transferred to a cell plate. Final concentrations of the compound in this assay were 10000.00, 5000, 2500, 1250, 625, 312.5, 156.25, 78.125 and 39.063 nM.
The assay was conducted in a 96-well plate. On the first day of the assay, Anti-CD3 was added to the 96-well plate and incubated in a 4 °C refrigerator overnight. On the second day of the assay, human Pan T cells were recovered, centrifuged and counted. The cell density was adjusted to 1*10^6 cells/ml. Then, 100 μL of cells were added to the 96-well plate washed with PBS and added with Anti-CD3; according to the experimental design diagram, 50 μL of diluted Anti-CD28 and 50 μL of the diluted compound were added to each well, centrifuged, and the cell plate was placed and incubated in an incubator for 48 hours; after 48 hours, the plate was centrifuged and the supernatant was collected for IL-2 ELISA.
The signal value of light absorption was converted into a multiple. Multiple=sample value/the average value of control wells. The average value of control wells refers to the value measured in wells with DMSO added. EC50 values were calculated by XLFit (version 5.3.1.3) in Excel. Equation: Y=Bottom+(Top−Bottom)/(1+(EC50/X)^HillSlope).

HPK1, sequence (Q92918 whole entry): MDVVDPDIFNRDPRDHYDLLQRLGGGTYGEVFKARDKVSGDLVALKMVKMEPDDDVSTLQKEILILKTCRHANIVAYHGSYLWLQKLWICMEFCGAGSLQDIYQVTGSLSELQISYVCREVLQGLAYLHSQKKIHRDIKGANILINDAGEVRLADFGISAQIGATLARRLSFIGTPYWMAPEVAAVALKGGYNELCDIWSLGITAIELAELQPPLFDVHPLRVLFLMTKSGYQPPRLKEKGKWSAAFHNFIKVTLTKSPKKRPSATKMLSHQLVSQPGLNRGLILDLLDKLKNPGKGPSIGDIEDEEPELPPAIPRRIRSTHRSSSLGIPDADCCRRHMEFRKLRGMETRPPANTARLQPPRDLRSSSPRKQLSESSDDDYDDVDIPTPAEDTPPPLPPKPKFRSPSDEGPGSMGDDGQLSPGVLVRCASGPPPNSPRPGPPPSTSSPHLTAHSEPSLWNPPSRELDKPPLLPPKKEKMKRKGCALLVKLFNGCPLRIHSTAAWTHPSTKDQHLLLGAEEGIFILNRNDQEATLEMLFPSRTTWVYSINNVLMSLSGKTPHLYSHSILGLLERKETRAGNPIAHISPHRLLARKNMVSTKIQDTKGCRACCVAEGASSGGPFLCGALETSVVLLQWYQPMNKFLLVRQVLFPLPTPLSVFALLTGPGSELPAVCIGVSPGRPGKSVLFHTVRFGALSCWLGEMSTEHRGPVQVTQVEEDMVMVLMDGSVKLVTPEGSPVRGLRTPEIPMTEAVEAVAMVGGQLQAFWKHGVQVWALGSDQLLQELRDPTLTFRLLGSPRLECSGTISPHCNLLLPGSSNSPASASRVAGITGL
T1 sequence (Q92918 whole entry): as above

Row | Structure (SMILES) | IC50 (HPK1) [nM] | IC50 [1] [nM] | EC50 [2] [nM]
1 | COc1cccn2c(-c3cc4c(c5c3CCNC5=O)Nc3ccc(N5CCOCC5)cc3C4(C)C)cnc12 [Example 13] | 9.32 | 24.4 | 3.12
2 | CC1(C)c2cc(N3CCOCC3)ccc2Nc2c1cc(-c1cncc(N3CCOCC3)c1)c1c2C(=O)NC1 [Example 85] | 36.2 |  | 69.4
